US20020019389A1, “Urea derivative useful as an anti-cancer agent and process for preparing same” (priority 2000, published 2002)
≈ marks a conversion by molar mass, not a printed value. Like-named read-outs stand apart in the source and are kept apart here.

How the values were obtained:
SPF ICR mouse [1] = assay: Acute toxicity test, single oral administration; assay type: in vivo; conditions: single administration per oral, 7-day observation
Procedure: (§1) (1) Test Animal: SPF ICR mouse
(§2) (2) Age of the Test Animal: 4 weeks from acquisition 5 weeks from the start of administration
(§3) (3) Gender and Number of Test Animal: respective 18 he and she-mice (6 groups in each of he and she-mice, 3 mice per group)
(§4) (4) Breeding Environment: Temperature 22±3° C., Relative humidity […], Illumination 150-300 Lux
(§5) (5) Method of Administration: Single administration per oral
(§6) (6) Items to be Observed: General symptoms, appearance, weight and autopsy of dead mice
(§7) (8) Medium: 0.5% Tween 80

[2] = tested on: A431 (ovarian cancer) cell line; assay: Anti-cancer activity in vitro, A431 cell line; assay type: cell-based
Procedure: (§8) The anti-cancer activity and toxicity of the compound according to the present invention were evaluated in vitro using A549 (lung cancer), SUN638 (gastric cancer), HCT116 (rectal cancer), and A431 (ovarian cancer) cell lines. The above four (4) cell lines were purchased from Cancer Research Institute, Seoul National University College of Medicine. […] The experiment was basically carried out according to the process described in Monks, A., et al, Journal of National Cancer Institute. 83: 757-766 (1991) and the results are represented in the following Tables 2 and 3.

A431 cell line = assay: Anti-cancer activity in vitro, A431 cell line; assay type: cell-based; conditions: Homo sapiens, A-431, read-out: LC50
Procedure: as §8

[3] = tested on: SUN638 (gastric cancer) cell line; assay: Anti-cancer activity in vitro, SUN638 cell line; assay type: cell-based
Procedure: as §8

[4] = tested on: A549 (lung cancer) cell line; assay: Anti-cancer activity in vitro, A549 cell line; assay type: cell-based
Procedure: as §8

[5] = tested on: HCT116 (rectal cancer) cell line; assay: Anti-cancer activity in vitro, HCT116 cell line; assay type: cell-based
Procedure: as §8

[6] = Acute toxicity test, single oral administration; assay type: in vivo; conditions: mouse, in vivo, single administration per oral, 7-day observation
Procedure: as §1, §2, §3, §4, §5, §6, §7

SPF ICR mouse [7] = conditions: clinically used comparison drugs, not among the test compounds of b552; species and route not given; cited from earlier work
[8] = Homo sapiens, A-431, A431 Cell Line, read-out: GI50
[9] = SUN638 Cell Line, read-out: GI50
[10] = Homo sapiens, A549, read-out: LC50
[11] = Homo sapiens, A549 Cell Line, read-out: GI50
[12] = Homo sapiens, HCT-116, read-out: LC50
[13] = Homo sapiens, HCT-116, HCT116 Cell Line, read-out: GI50
[14] = both sexes, male and female ICR mice

SMILES: COc1cc2c(cc1OC)C(c1ccccc1)CN(C(=O)Nc1nc3ccccc3nc1OC)CC2 (stereo not drawn) [Compound 2, 3-[N-(2-methoxyquinoxalin-3-yl)aminocarbonyl]-7,8-dimethoxy-1-phenyl-2,3,4,5-tetrahydro-3H-benzazepine]
- LD50 (SPF ICR mouse [1]; male and female ICR mice): 2000 (male and female) mg/kg

SMILES: Cc1cc(C)cc(N2CCN(C(=S)n3ccnc3)CC2)c1 [Compound 56, 1-[(1H-imidazol-1-yl)thiocarbonyl]-4-(3,5-dimethylphenyl) piperazine]
- TGI50 ([2]; A431 Cell Line): 28.84 µg/mL
- GI50 [2, 8]: 1.31 µg/mL (≈ 4.36 µM)
- LC50 (A431 cell line): > 100 µg/mL
- GI50 [3, 9]: 1.34 µg/mL (≈ 4.46 µM)
- LC50 ([3]; read-out: LC50): > 100 µg/mL
- LC50 [4, 10]: > 100 µg/mL
- GI50 [4, 11]: 2.04 µg/mL (≈ 6.79 µM)
- LC50 [5, 12]: > 100 µg/mL
- GI50 [5, 13]: 1.47 µg/mL (≈ 4.89 µM)

SMILES: Cc1cc(C)cc(N2CCN(C(=O)n3ccnc3)CC2)c1 [Compound 55, 1-[(1H-imidazol-1-yl)carbonyl]-4-(3,5-dimethylphenyl)piperazine]
- TGI50 ([2]; A431 Cell Line): 67.60 µg/mL
- GI50 ([2]; Homo sapiens, A-431): 1.38 µg/mL (≈ 4.85 µM)
- LC50 (A431 cell line): > 100 µg/mL
- GI50 [3]: 1.09 µg/mL (≈ 3.83 µM)
- LC50 ([3]; read-out: LC50): > 100 µg/mL
- GI50 ([4]; Homo sapiens, A549): 1.77 µg/mL (≈ 6.22 µM)
- LC50 [4, 10]: > 100 µg/mL
- GI50 ([5]; Homo sapiens, HCT-116): 2.08 µg/mL (≈ 7.31 µM)
- LC50 [5, 12]: > 100 µg/mL

SMILES: COc1cc2c(cc1OC)C(c1ccc(F)cc1)CN(C(=O)n1ccnc1)CC2 (stereo not drawn) [Compound 70, 3-[(1H-imidazol-1-yl)carbonyl]-7,8-dimethoxy-1-(4-fluoro)phenyl-2,3,4,5-tetrahydro-3H-benzazepine]
- GI50 ([3]; SUN638 Cell Line): 1.78 µg/mL (≈ 4.5 µM)
- LC50 ([3]; SUN638 Cell Line): >100 µg/mL
- TGI50 ([3]; SUN638 Cell Line): 7.24 µg/mL
- GI50 ([4]; A549 Cell Line): 1.12 µg/mL (≈ 2.83 µM)
- LC50 ([4]; A549 Cell Line): >100 µg/mL
- TGI50 ([4]; A549 Cell Line): 100 µg/mL
- GI50 ([5]; HCT116 Cell Line): 1.31 µg/mL (≈ 3.31 µM)
- LC50 ([5]; HCT116 Cell Line): >100 µg/mL
- TGI50 ([5]; HCT116 Cell Line): 23.98 µg/mL
- LD50 (SPF ICR mouse [1]; male and female ICR mice): 2000 (male and female) mg/kg

SMILES: O=C(N1CCN(c2nc(NCC3CC3)nc(NCC3CC3)n2)CC1)n1ccnc1 [Compound 62, 1-[(1H-imidazol-1-yl)carbonyl]-4-(4,6-bis-cyclopropylmethylamino-[1,3,5]triazin-2-yl)piperazine]
- GI50 [3]: 0.61 µg/mL (≈ 1.53 µM)
- LC50 ([3]; read-out: LC50): > 100 µg/mL
- GI50 ([4]; Homo sapiens, A549): 0.48 µg/mL (≈ 1.21 µM)
- LC50 [4, 10]: > 100 µg/mL
- GI50 ([5]; Homo sapiens, HCT-116): 0.38 µg/mL (≈ 0.956 µM)
- LC50 [5, 12]: > 100 µg/mL
- LD50 at 7 day ([6]; female ICR mice): 466 mg/kg
- LD50 at 7 day ([6]; male ICR mice): 354 mg/kg

SMILES: C=CCN(CC=C)c1nc(N(CC=C)CC=C)nc(N2CCN(C(=O)n3ccnc3)CC2)n1 [Compound 61, 1-[(1H-imidazol-1-yl)carbonyl]-4-(4,6-bis-diallylamino-[1,3,5]triazin-2-yl)piperazine]
- GI50 [3]: 2.95 µg/mL (≈ 6.56 µM)
- LC50 ([3]; read-out: LC50): > 100 µg/mL
- GI50 ([4]; Homo sapiens, A549): 6.02 µg/mL (≈ 13.4 µM)
- LC50 [4, 10]: > 100 µg/mL
- LD50 at 7 day ([6]; female ICR mice): 1140 mg/kg
- LD50 at 7 day ([6]; male ICR mice): 2330 mg/kg

SMILES: COc1cccc2c1C(=O)c1c(O)c3c(c(O)c1C2=O)C[C@@](O)(C(=O)CO)C[C@@H]3O[C@H]1C[C@H](N)[C@H](O)[C@H](C)O1 [Doxorubicin]
- LD50 (SPF ICR mouse [7]): 21.1 mg/kg

SMILES: COc1nc2ccccc2nc1NC(=O)N1CCN(C(c2ccccc2)c2ccccc2)CC1 [Compound 48, 1-[N-(2-methoxyquinoxalin-3-yl)aminocarbonyl]-4-(diphenylmethyl)piperazine]
- TGI50 ([2]; A431 Cell Line): 100 µg/mL
- GI50 [2, 8]: 1.65 µg/mL (≈ 3.64 µM)
- LC50 (A431 cell line): > 100 µg/mL
- GI50 [3, 9]: 1.62 µg/mL (≈ 3.57 µM)
- LC50 ([3]; read-out: LC50): > 100 µg/mL
- LC50 [4, 10]: > 100 µg/mL
- GI50 [4, 11]: 1.07 µg/mL (≈ 2.36 µM)
- LC50 [5, 12]: > 100 µg/mL
- GI50 [5, 13]: 0.67 µg/mL (≈ 1.48 µM)

SMILES: COc1cc2c(cc1OC)C(c1ccccc1)CN(C(=O)n1ccnc1)CC2 (stereo not drawn) [Compound 66, 3-[(1H-imidazol-1-yl)carbonyl]-7,8-dimethoxy-1-phenyl-2,3,4,5-tetrahydro-3H-benzazepine]
- GI50 ([2]; A431 Cell Line): 0.28 µg/mL (≈ 0.742 µM)
- LC50 ([2]; A431 Cell Line): >100 µg/mL
- TGI50 ([2]; A431 Cell Line): 100 µg/mL
- GI50 ([3]; SUN638 Cell Line): 0.21 µg/mL (≈ 0.556 µM)
- LC50 ([3]; SUN638 Cell Line): >100 µg/mL
- TGI50 ([3]; SUN638 Cell Line): 1.73 µg/mL
- GI50 ([4]; A549 Cell Line): 0.38 µg/mL (≈ 1.01 µM)
- LC50 ([4]; A549 Cell Line): >100 µg/mL
- TGI50 ([4]; A549 Cell Line): 54.95 µg/mL
- GI50 ([5]; HCT116 Cell Line): 0.19 µg/mL (≈ 0.503 µM)
- LC50 ([5]; HCT116 Cell Line): >100 µg/mL
- TGI50 ([5]; HCT116 Cell Line): 7.76 µg/mL
- LD50 (SPF ICR mouse [1]; female ICR mice): 2000 (female) mg/kg
- LD50 (SPF ICR mouse [1]; male ICR mice): 1921 (male) mg/kg

SMILES: C=CCNc1nc(NCC=C)nc(N2CCN(C(=O)NC(c3ccccc3)c3ccccc3)CC2)n1 [Compound 38, 1-[(diphenylmethyl)aminocarbonyl]-4-(4,6-bis-allylamino-[1,3,5]triazin-2-yl)piperazine]
- TGI50 ([2]; A431 Cell Line): 7.24 µg/mL
- GI50 [2, 8]: 1.41 µg/mL (≈ 2.91 µM)
- LC50 (A431 cell line): > 100 µg/mL
- GI50 [3, 9]: 2.75 µg/mL (≈ 5.67 µM)
- LC50 ([3]; read-out: LC50): > 100 µg/mL
- LC50 [4, 10]: > 100 µg/mL
- GI50 [4, 11]: 1.28 µg/mL (≈ 2.64 µM)
- LC50 [5, 12]: > 100 µg/mL
- GI50 [5, 13]: 1.28 µg/mL (≈ 2.64 µM)
- LD50 at 7 day [6, 14]: 2000 mg/kg

SMILES: N.N.O=C([O-])C1(C(=O)[O-])CCC1.[Pt+2] [Carboplatin]
- LD50 (SPF ICR mouse [7]): 150 mg/kg

SMILES: N.N.[Cl][Pt][Cl] [Cisplatin, cisplatin, reference compound]
- GI50 ([2]; A431 Cell Line): 3.2 µg/mL
- TGI50 ([2]; A431 Cell Line): 28.7 µg/mL
- GI50 ([3]; SUN638 Cell Line): 1.7 µg/mL
- TGI50 ([3]; SUN638 Cell Line): 13.3 µg/mL
- GI50 ([4]; A549 Cell Line): 3.8 µg/mL
- TGI50 ([4]; A549 Cell Line): 47.3 µg/mL
- GI50 ([5]; HCT116 Cell Line): 2.9 µg/mL
- TGI50 ([5]; HCT116 Cell Line): 32.77 µg/mL

SMILES: Cc1cc(C)cc(N2CCN(C(=O)n3ccnc3)CC2)c1.Cl [Compound 57, 1-[(1H-imidazol-1-yl)carbonyl]-4-(3,5-dimethylphenyl)piperazine hydrochloride]
- TGI50 ([2]; A431 Cell Line): 8.31 µg/mL
- GI50 ([2]; Homo sapiens, A-431): 1.51 µg/mL
- LC50 (A431 cell line): > 100 µg/mL
- GI50 [3]: 1.69 µg/mL
- LC50 ([3]; read-out: LC50): > 100 µg/mL
- GI50 ([4]; Homo sapiens, A549): 1.77 µg/mL
- LC50 [4, 10]: > 100 µg/mL
- GI50 ([5]; Homo sapiens, HCT-116): 1.34 µg/mL
- LC50 [5, 12]: > 100 µg/mL
- LD50 at 7 day [6, 14]: 1160 mg/kg
